From US20080039442A1, “Compounds With Kv4 Ion Channel Activity” (Devgen NV, priority 2004, published 2008)

Experiments:
[1] = molecular target: T1, Kv1.5 potassium channel (Homo sapiens, UniProt P22460); test: Patch clamp, CHO cells stably expressing Kv1.5; type: cell-based
T1 construct: expressed in transfected cells
Method: The cDNA coding for Kv1.5 (GenBank Acc. No. M55513) was cloned into the pcDNA6-vector (Invitrogen, Leek, Netherlands). A C-terminal epitope-tag was introduced via PCR. The plasmid was sequenced and subsequently introduced into cells. Clonal cell lines stably expressing the Kv1.5 channel were established. Expression of protein was analysed by means of immunofluorescence using antibodies directed against the epitope-tag. The functional expression of the ion channels was validated electrophysiologically.
The experiments were performed using CHO cells stably expressing the Kv 1.5 potassium channel.
Cells were grown at 37° C. and 5% CO2 in 25 ml flasks (Greiner Bioone, Cellstar, Cat. No. 690160) in 6 ml MEM ALPHA Medium (Sigma, Taufkirchen, Germany, Cat No M8042) supplemented with 10% (v/v) heat inactivated fetal calf serum (Sigma, Cat. No. F9665), 1% (v/v) P/S/G-solution (Sigma, Cat. No. G6784) and G-418 (750 μg per millilitre medium; Sigma, Germany, Cat. No. A1720; 50 mg/ml in water, Sigma, Germany, Cat. No. W3500).
From a HP of −60 mV cells were hyperpolarised for 100 ms to −70 mV, followed by a 500 ms depolarisation to +50 mV. The current amplitude at the end of the test pulse to +50 mV was used for the analysis. Pulse cycling rate was 10 s (0.1 Hz).
The application protocol of test compounds is depicted in FIG. 4. The first 14 stimuli were required to achieve steady state of the current amplitude. Unspecific current reduction was calculated and served for correcting procedures during data analysis. After the 14th stimulus the test compound application was started (indicated by an arrow) via teflon and silicone tubings and was assumed to reach the cell after 6 additional stimuli. The perfusion is adjusted by using a defined drop rate of 10 drops per 10-12 s. Up to three concentrations were applied successively to one cell followed by a wash period of 5 minutes. Total number of stimuli was 140. Effect of the test compound was analysed between stimulus nos. 21 and 50 (5 min., long dashed line) for the first concentration, between stimulus nos. 51 and 80 (5 min., short dashed line) for an additional 5 minutes. If the cell was still stable, a wash was added afterwards. Start of test compound application at the given concentration is indicated by arrows. Number of stimuli of each single episode are shown in the protocol of FIG. 4.
Vehicle (DMSO) control experiments were performed during study period and under identical conditions to verify the stability of current over time and to value cell condition.
The effects of the test compounds were investigated at one concentration (2 or 1 μM) on the Kv1.5-mediated potassium channel.

[2] = molecular target: hERG potassium channel (Homo sapiens, UniProt Q12809); test: Whole cell patch clamp, HEK 293 T-REx HERG cells; settings: 10 μM
From the text: For this experiment HEK 293 T-REx HERG cells (#23) were used. This cell line made by IonGate is characterized by the inducible expression of the hERG gene. The T-REx™ System (Invitrogen, Karlsruhe, Germany) is a tetracycline-regulated mammalian expression system that uses regulatory elements from the E. coli Tn10-encoded tetracycline (Tet) resistance operon. In the absence of Tet the expression is repressed. Tetracycline regulation in the T-REx™ System is based on the binding of tetracycline to the Tet repressor and derepression of the promoter controlling expression of the hERG gene. Addition of Tet to the cell culture media results in expression of the hERG potassium channel.
To construct the HEK 293 T-REx HERG cell line, the hERG gene was ligated into the inducible expression vector pcDNA4/TO (→pc4TO-HERG) and transfected into HEK 293 T-REx cells (this cell line stably expresses the Tet repressor and was purchased at Invitrogen). Stable cell clones were isolated after selection with Blasticidin (5 μg/ml) and Zeocin™ (300 μg/ml). The clones were electrophysiological characterized after induction with 1 μg/ml Tet.
Experiments were performed using the patch clamp set-up. Technical equipment needed for manipulation of the cells was placed on a vibration-isolated table and shielded with a Faraday cage to minimize electrical noise. The amplifier and control system were placed in a rack outside the Faraday cage. The system consisted of an EPC9 or EPC10 patch clamp amplifier (HEKA, Lambrecht, Germany), and the perfusion system DADVC8 (ALA Scientific, New York, USA) controlled by the Pulse software package (HEKA, Lambrecht, Germany) installed on a personal computer.
The cells used for this experiment were kept in continuous culture under standard conditions (37° C., air supplemented with 5% CO2). The HEK 293 T-REx HERG cells were kept in minimal essential medium (MEM) supplemented with 100 U/ml Penicillin, 100 μg/ml Streptomycin, 10% fetal calf serum (FCS), 1% non-essential amino acids (NEAA), 2.5 μg/ml amphotericin, 300 μg/ml Zeocin™ and 5 μg/ml Blasticidin. Cells were passed every 3-4 days after detachment using a Trypsin solution. The quality of the cultured cells was guaranteed by vitality and contamination tests.
At least 18 hours prior to electrophysiological experiments the cells were detached by application of iced PBS (phosphate buffered saline) or Trypsin and replated on cover slips. 1 μg/ml Tet was added to the cells to induce hERG expression.
Activity of the cardiac hERG channel was investigated using the patch clamp technique in its whole cell mode. This means that the current needed for clamping the whole cell expressing the K^+-channel protein to a specific potential was measured. The pipettes used for patch clamping were made of borosilicate glass. Measurements were performed at room temperature (20-25° C.). In each experiment (i.e. each cell) only one concentration of the compound was investigated—no cumulative dosages were performed. Each cell acted as its own control. The effect of the compounds on hERG mediated currents was investigated at one concentration (10 μM) with two replicates each (c=1, n=2).
Between voltage pulses the cell was clamped to a holding potential of −80 mV (inside).
(b) and (c) were used to characterize the properties of the hERG channel and to check the quality of the individual patch clamp experiment (voltage control). Each test protocol consisted of 6 segments.

[3] = concentration cell empty (text: 2 or 1 μM)

T1 sequence (P22460 whole entry): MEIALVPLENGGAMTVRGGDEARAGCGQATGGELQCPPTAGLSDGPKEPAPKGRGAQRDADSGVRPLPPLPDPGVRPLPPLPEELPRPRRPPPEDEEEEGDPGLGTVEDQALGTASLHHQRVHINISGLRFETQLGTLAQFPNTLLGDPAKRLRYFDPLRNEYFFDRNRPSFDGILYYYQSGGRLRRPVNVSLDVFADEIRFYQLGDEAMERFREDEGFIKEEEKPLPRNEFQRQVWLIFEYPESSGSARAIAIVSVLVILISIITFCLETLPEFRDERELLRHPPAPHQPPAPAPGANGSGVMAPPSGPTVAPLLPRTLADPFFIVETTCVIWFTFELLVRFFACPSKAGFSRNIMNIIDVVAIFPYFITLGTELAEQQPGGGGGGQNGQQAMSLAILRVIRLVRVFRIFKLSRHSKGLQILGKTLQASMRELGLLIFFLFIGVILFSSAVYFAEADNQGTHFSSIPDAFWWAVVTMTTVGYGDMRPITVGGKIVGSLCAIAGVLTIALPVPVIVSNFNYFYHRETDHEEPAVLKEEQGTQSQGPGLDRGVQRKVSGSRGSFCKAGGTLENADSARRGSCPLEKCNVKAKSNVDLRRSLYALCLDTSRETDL
Sequence of hERG potassium channel (Q12809 whole entry): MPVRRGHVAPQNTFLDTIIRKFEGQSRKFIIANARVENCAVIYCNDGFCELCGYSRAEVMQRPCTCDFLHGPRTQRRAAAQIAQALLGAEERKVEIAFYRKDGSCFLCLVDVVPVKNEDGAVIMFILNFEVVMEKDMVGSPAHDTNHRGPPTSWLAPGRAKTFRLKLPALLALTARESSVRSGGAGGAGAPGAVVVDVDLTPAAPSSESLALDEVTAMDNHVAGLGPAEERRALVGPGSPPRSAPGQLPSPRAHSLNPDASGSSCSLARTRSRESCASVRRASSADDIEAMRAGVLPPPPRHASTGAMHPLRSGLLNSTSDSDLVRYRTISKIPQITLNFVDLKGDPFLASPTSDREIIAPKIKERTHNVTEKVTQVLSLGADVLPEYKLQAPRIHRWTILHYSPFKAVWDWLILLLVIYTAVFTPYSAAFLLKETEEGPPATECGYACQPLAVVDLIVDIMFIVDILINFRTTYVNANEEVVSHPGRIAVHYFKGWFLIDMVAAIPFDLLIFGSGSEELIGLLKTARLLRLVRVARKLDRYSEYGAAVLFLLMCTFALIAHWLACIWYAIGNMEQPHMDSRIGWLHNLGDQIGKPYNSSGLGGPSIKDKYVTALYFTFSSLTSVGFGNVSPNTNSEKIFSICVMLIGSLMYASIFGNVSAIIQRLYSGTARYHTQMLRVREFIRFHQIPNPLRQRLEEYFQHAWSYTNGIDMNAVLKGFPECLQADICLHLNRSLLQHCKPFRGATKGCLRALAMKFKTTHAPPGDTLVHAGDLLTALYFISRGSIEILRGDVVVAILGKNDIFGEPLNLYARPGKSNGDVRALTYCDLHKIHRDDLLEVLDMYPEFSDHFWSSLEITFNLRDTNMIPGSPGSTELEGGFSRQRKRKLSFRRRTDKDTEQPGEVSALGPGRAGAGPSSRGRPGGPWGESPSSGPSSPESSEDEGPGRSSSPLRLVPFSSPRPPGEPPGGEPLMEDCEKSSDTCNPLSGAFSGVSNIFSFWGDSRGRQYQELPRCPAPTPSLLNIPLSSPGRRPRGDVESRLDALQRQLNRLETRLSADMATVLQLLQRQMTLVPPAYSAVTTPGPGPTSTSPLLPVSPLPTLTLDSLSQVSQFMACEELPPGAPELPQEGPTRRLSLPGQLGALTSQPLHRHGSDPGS

Row | Compound | Relative remaining current (mean after 8-10 min) ([1]; 2 μM, fraction, % in brackets) | Relative remaining current (mean after 5 min) ([1]; 2 μM, fraction, % in brackets) | Relative remaining current (mean after 8-10 min) [1, 3] | hERG (%) [2] | melting point
1 | 5-chloro-benzofuran-2- carboxylic acid 2,4- dimethoxy- benzylamide [Compound 2] | 0.66 (66%) | 0.88 (88%) | – | – | –
2 | O=C(NCc1ccc(OC(F)(F)F)cc1)c1cc2cc(Cl)ccc2o1 [Compound 89, 5-chloro-benzofuran-2-carboxylic acid 4-trifluoromethoxy-benzylamide] | – | – | 82% | 39% | 101.3 to 106.3 °C
3 | Cc1c(C(=O)NCc2ccc(F)c(C(F)(F)F)c2)sc2ccc(Cl)cc12 [Compound 107, 5-chloro-3-methyl-benzo[b]thiophene-2-carboxylic acid 4-fluoro-3-trifluoromethyl-benzylamide] | – | – | 89% | 38% | 134 to 136.5 °C
